No end group written: not given here.
Key:
PARP1(518–1014) = assay: Methyltransferase activity of SMYD2 proteins on PARP1(518–1014), MTase-Glo assay; type: biochemical, human; details: versus wild-type SMYD2
Experimental: Steady-state enzyme kinetics was carried out using the MTase-Glo methyltransferase assay according to the manufacturer’s instructions (Promega). […] After incubating the reactions with the MTase-Glo reagent and MTase-Glo Detection Solution, the amount of produced AdoHcy was determined by measuring luminescent signals using a microplate reader. The reactions were quantified using an AdoHcy standard curve that correlates the luminescence intensity to the AdoHcy concentration. Enzyme kinetic constants (KM, kcat, and Hill coefficient) were determined using initial velocity measurements at varying substrate concentrations by fitting them to a standard Michaelis-Menten kinetics model and the Hill equation.

histone H3 = assay: Antibody-based methyltransferase assay on H3; type: biochemical; details: versus wild-type SMYD2; 30°C overnight, Western blot
Experimental: (§1) An antibody-based methyltransferase assay was carried out similarly to a previously described method ([29]). Reactions were performed by incubating SMYD2 proteins with H3 or H4 in the presence of AdoMet at 30°C overnight in a reaction buffer containing 50 mM Tris pH 8.5, 25 mM NaCl, 5% glycerol, and 2 mM DTT. Lysine methylation was detected by Western blot analysis using antibodies against mono-, di-, and trimethylated lysine (ab23366 & ab76118, Abcam). Enzymatic activities were quantified based on chemiluminescence using a CCD gel imager.

histone H4 = assay: Antibody-based methyltransferase assay on H4; type: biochemical; details: versus wild-type SMYD2; 30°C overnight, Western blot
Experimental: as §1

[1] = molecular target: T1, SMYD2-F184A / PARP1(518–1014) interaction (Homo sapiens, UniProt Q9NRG4, F184A); assay: ELISA inhibition of SMYD2-PARP1(518–1014) interaction by PARP1 peptide, F184A mutant; details: SMYD2 pre-incubated with peptide, four-parameter logistic fit, triplicate, read-out: IC50 of inhibition of F184A mutant binding to coated PARP1 protein
T1 construct: Full-length human SMYD2 (residues 1–433) (SMYD2-WT); 6xHis-SUMO (N, cleaved yes); made in house
T1 sequence (Q9NRG4 whole entry F184A, the tested form may be a part): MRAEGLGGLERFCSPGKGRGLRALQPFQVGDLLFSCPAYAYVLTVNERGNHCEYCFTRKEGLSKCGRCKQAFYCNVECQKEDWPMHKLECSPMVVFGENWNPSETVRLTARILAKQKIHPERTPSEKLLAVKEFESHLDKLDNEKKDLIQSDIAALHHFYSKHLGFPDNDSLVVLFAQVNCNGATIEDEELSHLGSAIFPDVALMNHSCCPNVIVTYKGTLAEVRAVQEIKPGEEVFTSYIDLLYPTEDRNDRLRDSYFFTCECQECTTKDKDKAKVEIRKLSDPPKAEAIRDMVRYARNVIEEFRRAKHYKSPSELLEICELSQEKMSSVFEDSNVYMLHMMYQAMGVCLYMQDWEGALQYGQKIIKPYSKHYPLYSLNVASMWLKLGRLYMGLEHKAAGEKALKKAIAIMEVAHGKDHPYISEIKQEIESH
Experimental: ELISA solid-phase protein binding experiments were performed according to the previously described protocol ([22]). ELISA plates were prepared by coating PARP1, H3, or H4 onto the wells in a coating buffer containing 10 mM HEPES pH 7.5, 0.1 M KCl, and 3 mM MgCl2. After blocking the plates with 1% BSA, binding experiments were performed by adding different concentrations of SMYD2 proteins into the wells. For PARP1 peptide inhibition experiments, SMYD2 proteins were pre-incubated with the PARP1 peptide before being added to the wells. Bound SMYD2 proteins were probed with the anti-SMYD2 antibody (ab108217, Abcam), and the amount of binding was quantified using an HRP-conjugated secondary antibody (ab6721, Abcam) that generated a color signal from oxidizing the substrate 2,2′-azino-bis(3-ethylbenzthiazoline sulfonic acid). The absorbance of signals was measured at 420 nm using a microplate reader at 2-minute intervals for 15 minutes. The rate of change in absorbance obtained by linear regression was used to quantify the binding. IC50 and the concentration required for 50% saturation were obtained by fitting binding data using a four-parameter logistic regression model. For reciprocal binding experiments, SMYD2 proteins were coated onto the wells and bound PARP1 was detected by the anti-PARP1 antibody (ab191217, Abcam). All binding experiments were performed in triplicate.

Substance | methylation level of PARP1 protein (PARP1(518–1014)) | methylation of H3 (histone H3) | methylation of H4 (histone H4) | IC50 [1]
F184A mutant: SMYD2 mutant targeting the target lysine access channel at the active site | abolishes the methyltransferase activity | abolishes the methyltransferase activity | abolishes the methyltransferase activity | –
RMKLTLKGGAAVD [PARP1 peptide] | – | – | – | ~153 nM
L351A/W356A mutant: SMYD2 secondary-binding-site mutant targeting both subsites M and L | notable increase | marked increase | marked increase | –
